Measurements taken from US6710051B1, “Screening method” (Klaus Trier APS, priority 1997, dated 2004).
Marks after values point to notes of the source that are not given here.

Experiments:
sclera [1] = assay: Content of proteoglycanes in rabbit sclera after long term treatment (alcian blue method); type: in vivo; set-up: Proteoglycanes Decrease compared to the control, anterior sclera / Proteoglycanes Increase compared to the control, anterior sclera / Proteoglycanes Increase compared to the control, posterior sclera / Effect on proteoglycan content of posterior sclera in % compared to control: concentration or dose not given beside the values; settings: for Content of proteoglycanes, anterior sclera / Content of proteoglycanes, posterior sclera: wet weight
Protocol: (§1) Test animal: Charles River Deutschland Chinchilla Bastard female rabbits.
(§2) Number of animals: 6 test animals and 6 control animals
(§3) Age: approximately 8 weeks at the commencement of the test.
(§4) Weight: 1.4-1.9 kg at the commencement of the test.
Lightness/Darkness cycle: 12/12 hours.
(§5) Cages: The animals live in identical cages made of stainless steel (Scanbur), length 1 m, depth 0.52 m, height 0.5 m.
Food: Stanrab standard diet from Special Diet Services, P.O. Box 705, Witham Essex CM8 3AD, UK (further details, see Table A).
(§6) Amount of food: Increasing from 75 g per day at the commencement of the test up to 130 g after three months.
(§7) Experimental drinking water 1 contained theophyllin in a dose equivalent of 27 mg increasing to 63 mg (added as theophyllin and ethylendiamin in a dose of 33 to 77 mg) daily.
(§8) Experimental drinking water 2 contained fluoxetine (Fontex, Lilly) in a dose equivalent of 2 mg increasing to 5 mg daily.
Experimental diet 2 was added 4.5 g L-cystine per kg Stanrab standard diet equivalent of a daily L-cystine dose of 338 mg increasing to 585 mg per day. With respect to the supplement of L-cystine, the normal intake per day of the standard diet is 218 mg increasing to 377 mg L-cystine.
(§9) Experimental diet 3 was added 7-methylxanthine 500 mg per kg Stanrab standard diet equivalent of a daily 7-methylxanthine dose of […] per day.
(§10) Experimental diet 4 was added theobromine (3,7-dimethylxanthine) 500 mg per kg Stanrab standard diet equivalent of a daily theobromine dose of […] per day.
(§11) Experimental diet 5 was added acetazolamide 500 mg per kg Stanrab standard diet equivalent of a daily acetazolamide dose of […] per day.
Experimental diet 6 was added 4.5 g L-ornithine per kg Stanrab standard diet equivalent of a daily L-ornithine dose of 338 mg increasing to 585 mg per day.
(§12) Collection of sample: Sclera biopsies are taken for analysis for proteoglycane content, distribution between the individual glycosaminoglycanes and the content of collagen specific amino acids. Four tests from each animal: Two samples from the front, 5×10 mm along limbus (without cornea), and two samples from the back, punch 10 mm corresponding to the center of the retina. Furthermore, tests are taken for electron microscopy (EM) from two animals in each group.
Analyses: Samples for proteoglycane analysis are frozen down immediately. The samples are analyzed by Wieslab AB, IDEON, S-223 70 Lund, Sweden, by means of a method which has been described by Björnsson, S., Analytical Biochemistry 210, 282-291 (1993). The method comprises extraction by 20 microliters of 4 M guanidine-HCl, 50 Mm sodium acetate per mg wet weight over night by room temperatures. The extracts are centrifuged in order to remove debris. 20 microliters of supernatant are reduced 1/10 in extraction buffer and 20 microliters of reduced supernatant are mixed with 10 microliters of reagent 1 (see Björnsson, S., Analytical biochemistry 210, 282-291 (1993)) on a shaking table for 15 minutes. 200 microliters of reagent 2 are added and the tests are incubated for 60 minutes in order to precipitate the proteoglycanes. The proteoglycane/alcian blue precipitate is transferred to 96-wells MillBlotD apparatus and washed with 2×200 microliters of 40% DMSO, 0.05 M of MgCl2. The colour intensity of the wells are quantitated by microtech E3 scanner and Scan Analysis software (Biosoft, Cambridge, U.K.). Chrondroitine-6-sulphate (Sigma C4384) is used as the calibrator. All samples are analyzed in duplicate.
The results of longterm treatment with each of the 8 substances specified above are shown in Example 2 (treatment for 12 weeks) and Example 4 (treatment for 10 weeks).

sclera [2] = assay: Content of collagen specific amino acids in rabbit sclera after long term treatment (HPLC); type: in vivo; set-up: Hydroxylysine Decr. compared to the control / Hydroxyproline Inc. compared to the control / Proline Inc. compared to the control: concentration or dose not given beside the values; settings: for Hydroxylysine Decr. compared to the control / Hydroxylysine content / Hydroxyproline content / Proline content / Hydroxyproline Inc. compared to the control / Proline Inc. compared to the control: 3 months treatment; for Hydroxylysine content / Hydroxyproline content / Proline content: dried defatted weight
Source text: as §1, §2, §3, §4, §5, §6, §7, §8, §9, §10, §11, §12
Samples for analysis for content of collagen specific amino acids are frozen down immediately. The amino acid content is determined by HPLC-chromatography.
The dried tissue with constant weight is minced into very fine particles with a pair of scissors, approximately 20 per piece of tissue. The small flakes from each original piece of tissue ate divided into two equally sized portions, one of which is employed for hydrolysis and the other one is kept for reference. The constant dry weight of each portion is known.
From each resolubilized hydrolysate 3 aliquots of each 8 microliters and 3 aliquots of 40 μl are taken and transferred to separate polypropylene tubes in which 20 microliters of a solution of internal standard substances citrulline and 2 aminobutyric acid were added where the further method takes place.
The taken aliquots from hydrolysate are dried in a vacuum exsiccator at 35° C. over night and subsequently submitted to derivatization with phenylisothiocyanate.
The resulting phenylisothiocarbamates are transferred to the HPLC instrument for separation and quantification. A new set of calibration curves is established, 1 curve for each of the 19 amino acids, prior to the analysis of the samples from one investigation.
The concentration range of standard samples exceed the ranges of amino acid concentrations in the unknowns. Hydroxyproline and proline are quantitated from the 8 microliter aliquots, and hydroxylysine is quantitated from the 40 microliter aliquots.

sclera [3] = assay: as above; type: in vivo; settings: dried defatted weight, 10 weeks treatment (Example 4)
skeletal RyR = biological target: T1, skeletal RyR (Oryctolagus cuniculus, UniProt P11716); settings: cited from earlier work
T1 construct: Structure-activity Relationship of Xanthines and Skeletal Muscle Ryanodine Receptor/Ca^2+ Release Channel; from tissue; host or cells: Skeletal muscle

[4] = posterior sclera, 10 weeks treatment (Example 4)

T1 sequence (P11716 whole entry): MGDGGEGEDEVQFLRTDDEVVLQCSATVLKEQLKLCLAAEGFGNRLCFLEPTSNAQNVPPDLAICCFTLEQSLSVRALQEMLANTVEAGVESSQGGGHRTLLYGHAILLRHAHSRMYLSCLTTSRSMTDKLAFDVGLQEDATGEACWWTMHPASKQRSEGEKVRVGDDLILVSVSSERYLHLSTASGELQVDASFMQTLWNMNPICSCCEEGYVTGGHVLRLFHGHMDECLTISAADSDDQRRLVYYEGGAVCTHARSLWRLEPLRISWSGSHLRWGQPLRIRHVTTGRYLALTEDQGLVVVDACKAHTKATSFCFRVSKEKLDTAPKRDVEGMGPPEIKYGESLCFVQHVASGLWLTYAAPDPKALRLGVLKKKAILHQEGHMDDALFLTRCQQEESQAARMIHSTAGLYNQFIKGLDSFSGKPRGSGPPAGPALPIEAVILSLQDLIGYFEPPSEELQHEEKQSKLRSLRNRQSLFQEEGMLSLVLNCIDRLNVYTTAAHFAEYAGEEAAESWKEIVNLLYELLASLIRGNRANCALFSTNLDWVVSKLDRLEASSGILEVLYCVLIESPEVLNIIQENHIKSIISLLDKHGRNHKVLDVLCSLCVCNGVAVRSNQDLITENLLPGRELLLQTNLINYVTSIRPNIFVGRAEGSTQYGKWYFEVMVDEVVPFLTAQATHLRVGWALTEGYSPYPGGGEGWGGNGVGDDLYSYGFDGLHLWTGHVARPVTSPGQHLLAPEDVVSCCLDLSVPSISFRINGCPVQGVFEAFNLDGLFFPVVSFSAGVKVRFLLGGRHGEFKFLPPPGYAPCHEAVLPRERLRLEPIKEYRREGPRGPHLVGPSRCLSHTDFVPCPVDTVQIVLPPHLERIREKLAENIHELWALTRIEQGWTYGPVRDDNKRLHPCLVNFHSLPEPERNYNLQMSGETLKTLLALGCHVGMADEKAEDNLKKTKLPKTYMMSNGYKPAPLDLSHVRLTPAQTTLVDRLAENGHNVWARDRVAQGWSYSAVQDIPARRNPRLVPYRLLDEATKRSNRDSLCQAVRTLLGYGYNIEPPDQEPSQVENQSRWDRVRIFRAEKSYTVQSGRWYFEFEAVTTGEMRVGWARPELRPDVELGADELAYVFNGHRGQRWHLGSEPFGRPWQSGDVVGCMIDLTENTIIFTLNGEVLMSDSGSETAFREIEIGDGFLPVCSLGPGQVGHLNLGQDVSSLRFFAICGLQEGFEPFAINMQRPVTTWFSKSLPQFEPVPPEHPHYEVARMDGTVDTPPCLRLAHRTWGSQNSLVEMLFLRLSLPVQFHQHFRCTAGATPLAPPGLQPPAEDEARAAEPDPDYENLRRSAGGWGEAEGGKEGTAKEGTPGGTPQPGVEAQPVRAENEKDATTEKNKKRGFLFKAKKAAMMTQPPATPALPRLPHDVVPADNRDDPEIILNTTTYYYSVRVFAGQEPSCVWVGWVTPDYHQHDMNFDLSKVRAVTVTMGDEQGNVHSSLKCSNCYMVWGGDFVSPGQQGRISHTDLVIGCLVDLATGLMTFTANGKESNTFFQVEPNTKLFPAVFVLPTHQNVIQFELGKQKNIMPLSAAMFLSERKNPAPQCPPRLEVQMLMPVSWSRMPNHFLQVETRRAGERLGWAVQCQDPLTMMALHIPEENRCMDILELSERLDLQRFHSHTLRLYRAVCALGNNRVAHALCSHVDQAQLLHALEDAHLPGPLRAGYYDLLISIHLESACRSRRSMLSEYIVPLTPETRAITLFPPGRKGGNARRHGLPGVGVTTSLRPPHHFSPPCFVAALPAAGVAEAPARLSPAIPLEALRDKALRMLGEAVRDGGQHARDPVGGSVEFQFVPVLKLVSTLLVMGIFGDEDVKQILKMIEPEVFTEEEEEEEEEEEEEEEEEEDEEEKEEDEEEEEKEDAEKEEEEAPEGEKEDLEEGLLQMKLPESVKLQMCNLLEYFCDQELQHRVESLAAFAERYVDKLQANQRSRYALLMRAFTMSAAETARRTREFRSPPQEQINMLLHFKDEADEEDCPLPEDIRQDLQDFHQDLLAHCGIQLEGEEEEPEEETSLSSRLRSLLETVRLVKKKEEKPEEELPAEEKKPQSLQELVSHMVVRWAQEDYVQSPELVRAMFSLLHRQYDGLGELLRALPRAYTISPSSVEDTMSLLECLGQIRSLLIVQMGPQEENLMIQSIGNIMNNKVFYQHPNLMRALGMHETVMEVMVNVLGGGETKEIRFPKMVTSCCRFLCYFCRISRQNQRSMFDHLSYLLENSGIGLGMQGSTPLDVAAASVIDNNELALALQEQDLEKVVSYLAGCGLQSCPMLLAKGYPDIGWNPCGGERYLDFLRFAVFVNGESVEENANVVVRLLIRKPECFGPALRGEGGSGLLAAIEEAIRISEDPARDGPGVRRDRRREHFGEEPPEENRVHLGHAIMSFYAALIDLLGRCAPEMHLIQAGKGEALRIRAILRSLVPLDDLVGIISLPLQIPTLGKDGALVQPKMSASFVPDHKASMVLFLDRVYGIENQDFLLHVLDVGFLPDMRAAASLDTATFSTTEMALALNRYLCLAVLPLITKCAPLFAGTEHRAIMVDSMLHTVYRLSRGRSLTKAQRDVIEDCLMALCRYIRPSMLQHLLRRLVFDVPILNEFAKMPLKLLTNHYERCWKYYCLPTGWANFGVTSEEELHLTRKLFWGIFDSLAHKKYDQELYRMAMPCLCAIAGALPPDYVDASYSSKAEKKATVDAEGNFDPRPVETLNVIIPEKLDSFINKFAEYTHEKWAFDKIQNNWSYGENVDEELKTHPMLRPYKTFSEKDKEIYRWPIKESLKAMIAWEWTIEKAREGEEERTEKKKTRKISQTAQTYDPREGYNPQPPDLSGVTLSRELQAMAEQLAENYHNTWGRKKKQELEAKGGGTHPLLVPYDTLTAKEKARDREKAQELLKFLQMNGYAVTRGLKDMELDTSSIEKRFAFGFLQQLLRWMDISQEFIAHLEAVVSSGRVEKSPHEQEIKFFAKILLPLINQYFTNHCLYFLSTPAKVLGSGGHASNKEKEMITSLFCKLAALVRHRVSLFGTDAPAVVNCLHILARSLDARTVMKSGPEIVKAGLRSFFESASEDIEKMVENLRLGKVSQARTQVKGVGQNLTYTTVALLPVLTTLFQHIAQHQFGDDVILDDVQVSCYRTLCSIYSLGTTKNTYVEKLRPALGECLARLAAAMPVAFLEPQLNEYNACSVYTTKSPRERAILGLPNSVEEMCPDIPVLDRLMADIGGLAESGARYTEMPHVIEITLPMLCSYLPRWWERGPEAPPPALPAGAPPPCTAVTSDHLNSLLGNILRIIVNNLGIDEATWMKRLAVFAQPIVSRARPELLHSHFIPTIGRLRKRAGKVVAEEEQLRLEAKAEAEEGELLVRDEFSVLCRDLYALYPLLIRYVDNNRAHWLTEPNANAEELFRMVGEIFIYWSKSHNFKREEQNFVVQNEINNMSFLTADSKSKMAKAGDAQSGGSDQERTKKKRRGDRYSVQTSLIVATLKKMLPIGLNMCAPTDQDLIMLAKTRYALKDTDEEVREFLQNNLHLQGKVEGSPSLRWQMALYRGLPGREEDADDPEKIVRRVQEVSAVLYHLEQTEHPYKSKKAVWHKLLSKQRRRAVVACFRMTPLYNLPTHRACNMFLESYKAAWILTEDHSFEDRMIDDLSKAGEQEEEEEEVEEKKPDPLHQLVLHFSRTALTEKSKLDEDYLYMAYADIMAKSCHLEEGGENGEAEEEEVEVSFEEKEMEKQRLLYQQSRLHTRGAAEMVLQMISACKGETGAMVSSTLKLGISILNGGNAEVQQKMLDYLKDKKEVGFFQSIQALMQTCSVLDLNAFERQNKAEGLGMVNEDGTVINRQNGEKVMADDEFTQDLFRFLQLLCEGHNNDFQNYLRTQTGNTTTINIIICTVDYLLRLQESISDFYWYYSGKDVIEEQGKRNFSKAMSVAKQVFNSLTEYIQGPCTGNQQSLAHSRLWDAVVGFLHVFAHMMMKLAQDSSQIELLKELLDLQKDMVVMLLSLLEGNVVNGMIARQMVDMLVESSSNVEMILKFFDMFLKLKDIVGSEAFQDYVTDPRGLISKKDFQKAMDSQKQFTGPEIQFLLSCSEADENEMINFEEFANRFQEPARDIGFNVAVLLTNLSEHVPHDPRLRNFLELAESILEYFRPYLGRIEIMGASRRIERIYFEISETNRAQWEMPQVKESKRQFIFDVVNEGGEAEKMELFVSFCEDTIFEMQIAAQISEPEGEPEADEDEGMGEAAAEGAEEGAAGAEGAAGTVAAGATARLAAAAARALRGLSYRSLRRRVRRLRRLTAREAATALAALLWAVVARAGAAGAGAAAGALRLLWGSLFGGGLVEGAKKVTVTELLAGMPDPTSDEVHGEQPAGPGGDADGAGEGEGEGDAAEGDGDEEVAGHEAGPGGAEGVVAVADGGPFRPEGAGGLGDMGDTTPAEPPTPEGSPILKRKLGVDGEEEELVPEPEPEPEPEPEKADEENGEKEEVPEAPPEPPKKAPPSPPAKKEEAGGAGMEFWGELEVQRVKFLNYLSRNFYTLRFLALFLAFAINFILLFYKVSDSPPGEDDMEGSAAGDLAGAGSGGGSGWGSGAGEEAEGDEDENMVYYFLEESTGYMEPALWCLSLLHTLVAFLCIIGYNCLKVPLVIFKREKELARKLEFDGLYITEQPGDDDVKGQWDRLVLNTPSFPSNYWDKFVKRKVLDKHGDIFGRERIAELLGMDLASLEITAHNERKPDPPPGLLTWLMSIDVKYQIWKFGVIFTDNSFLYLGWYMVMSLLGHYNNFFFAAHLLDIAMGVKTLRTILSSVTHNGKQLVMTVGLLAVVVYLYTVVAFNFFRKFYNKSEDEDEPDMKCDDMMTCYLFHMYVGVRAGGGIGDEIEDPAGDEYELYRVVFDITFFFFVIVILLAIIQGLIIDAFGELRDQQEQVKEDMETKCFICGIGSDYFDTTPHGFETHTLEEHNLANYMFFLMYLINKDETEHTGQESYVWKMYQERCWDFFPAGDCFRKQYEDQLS

Compound | Proteoglycanes Decrease compared to the control, anterior sclera (sclera [1]; 3 months treatment) [%] | Content of proteoglycanes, anterior sclera (sclera [1]; 3 months treatment) | Content of proteoglycanes, posterior sclera (sclera [1]; 3 months treatment) | Hydroxylysine Decr. compared to the control (sclera [2]; anterior sclera) [%] | Hydroxylysine content (sclera [2]; anterior sclera) | Hydroxyproline content (sclera [2]; anterior sclera) | Proline content (sclera [2]; anterior sclera) | Hydroxyproline Inc. compared to the control (sclera [2]; posterior sclera) [%] | Proline Inc. compared to the control (sclera [2]; posterior sclera) [%] | Hydroxylysine content (sclera [2]; posterior sclera) | Hydroxyproline content (sclera [2]; posterior sclera) | Proline content (sclera [2]; posterior sclera) | Content of proteoglycanes, anterior sclera (sclera [1]; 10 weeks treatment (Example 4)) | Content of proteoglycanes, posterior sclera (sclera [1]; 10 weeks treatment (Example 4)) | Hydroxylysine content (sclera [3]; anterior sclera) | Hydroxyproline content (sclera [3]; anterior sclera) | Proline content (sclera [3]; anterior sclera) | Hydroxylysine content (sclera [3]; posterior sclera) | Hydroxyproline content (sclera [3]; posterior sclera) | Proline content (sclera [3]; posterior sclera) | other results
CNCCC(Oc1ccc(C(F)(F)F)cc1)c1ccccc1 (stereo not drawn) [Fluoxetine, fluoxetine] | 19 | 2.2 +/− 0.4* μg PG/mg tissue | 2.6 +/− 0.2 μg PG/mg tissue | 20 | 33 +/− 11 nanomol/mg tissue | 619 +/− 40 nanomol/mg tissue | 896 +/− 21 nanomol/mg tissue | 17 | 15 | 41 +/− 13 nanomol/mg tissue | 640 +/− 31 nanomol/mg tissue | 927 +/− 15 nanomol/mg tissue | – | – | – | – | – | – | – | – | –
Cn1cnc2[nH]c(=O)[nH]c(=O)c21 [7-Methylxanthine] | – | – | – | – | – | – | – | – | – | – | – | – | 2.5 +/− 0.5 μg PG/mg tissue | 3.3 +/− 0.3 μg PG/mg tissue | 45 +/− 3 nanomol/mg tissue | 667 +/− 73 nanomol/mg tissue | 951 +/− 111 nanomol/mg tissue | 44 +/− 7 nanomol/mg tissue | 719 +/− 81* nanomol/mg tissue | 1018 +/− 108* nanomol/mg tissue | Proteoglycanes Decrease, anterior sclera (sclera [1]; 10 weeks treatment (Example 4)): 14%; Proteoglycanes Increase, posterior sclera (sclera [1]; 10 weeks treatment (Example 4)): 14%; content of proteoglycans in posterior sclera (in words) (sclera [1]; Example 4, versus control): near significant increase; Effect on proteoglycan content of posterior sclera in % compared to control (sclera [1]; rabbit, Examples 2 and 4): 114%; content of hydroxyproline and proline in posterior sclera (in words) (sclera [2]; Example 4, versus control): significantly higher content; Hydroxylysine Inc. (sclera [2]; [4]): 7%; Hydroxyproline Inc. (sclera [2]; [4]): 16%; Proline Inc. (sclera [2]; [4]): 10%; Effect on [3H ryanodine binding in % compared to control (skeletal RyR; values of Table 3 without AMP/AMPPCP, caffeine represented by 1,7-dimethylxanthine): 204%; Bound [3H]ryanodine % of control (skeletal RyR; xanthine […], 1 mmol/l AMPPCP, control (-xanthine) = 100): 225 ± 11 % of control; Bound [3H]ryanodine pmol/mg protein (skeletal RyR; xanthine […], 1 mmol/l AMPPCP, means±SD of 3-4 experiments): 3.80 ± 0.19 pmol/mg protein; Bound [3H]ryanodine, % of control, +1 mmol/l AMPPCP (skeletal RyR; xanthine […], +1 mmol/l AMPPCP, control (-xanthine) = 100): 225 ± 11 % of control; Bound [3H]ryanodine, % of control, +3 mmol/l AMP (skeletal RyR; xanthine […], +3 mmol/l AMP, control (-xanthine) = 100): 214 ± 15 % of control
N[C@@H](CSSC[C@H](N)C(=O)O)C(=O)O [L-cystine] | – | 3.5 +/− 0.5* μg PG/mg tissue | 3.5 +/− 0.4* μg PG/mg tissue | – | 45 +/− 10 nanomol/mg tissue | 599 +/− 41 nanomol/mg tissue | 885 +/− 22 nanomol/mg tissue | 9 | 7 | 43 +/− 8 nanomol/mg tissue | 596 +/− 39 nanomol/mg tissue | 867 +/− 14 nanomol/mg tissue | – | – | – | – | – | – | – | – | Proteoglycanes Increase compared to the control, anterior sclera (sclera [1]; 3 months treatment): 29%; Proteoglycanes Increase compared to the control, posterior sclera (sclera [1]; 3 months treatment): 29%
CC(=O)Nc1nnc(S(N)(=O)=O)s1 [Acetazolamide, acetazolamide] | – | – | – | – | – | – | – | – | – | – | – | – | 2.9 +/− 0.4 μg PG/mg tissue | 2.8 +/− 0.8 μg PG/mg tissue | 41 +/− 4 nanomol/mg tissue | 596 +/− 27* nanomol/mg tissue | 843 +/− 47* nanomol/mg tissue | 38 +/− 6 nanomol/mg tissue | 563 +/− 91 nanomol/mg tissue | 781 +/− 125 nanomol/mg tissue | content of hydroxyproline and proline in anterior sclera (in words) (sclera [2]; Example 4, versus control, significantly): reduced; Hydroxylysine Decr. (sclera [2]; [4]): 7%; Hydroxyproline Decr. (sclera [2]; [4]): 10%; Proline Decr. (sclera [2]; [4]): 10%
Cn1c(=O)c2[nH]cnc2n(C)c1=O.Cn1c(=O)c2[nH]cnc2n(C)c1=O.NCCN [Teofylamin] | 11 | 2.4 +/− 0.5 μg PG/mg tissue | 2.7 +/− 0.3 μg PG/mg tissue | 32 | 28 +/− 10 nanomol/mg tissue | 653 +/− 39 nanomol/mg tissue | 958 +/− 23 nanomol/mg tissue | 18 | 11 | 28 +/− 15 nanomol/mg tissue | 643 +/− 74 nanomol/mg tissue | 902 +/− 53 nanomol/mg tissue | – | – | – | – | – | – | – | – | Hydroxyproline Inc. compared to the control (sclera [2]; anterior sclera): 8%; Proline Inc. compared to the control (sclera [2]; anterior sclera): 8%; Hydroxylysine Decr. compared to the control (sclera [2]; posterior sclera): 35%
NCCC[C@H](N)C(=O)O [L-ornithine] | – | – | – | – | – | – | – | – | – | – | – | – | 3.0 +/− 1.1 μg PG/mg tissue | 3.0 +/− 0.9 μg PG/mg tissue | 37 +/− 4 nanomol/mg tissue | 605 +/− 37 nanomol/mg tissue | 875 +/− 48 nanomol/mg tissue | 38 +/− 5 nanomol/mg tissue | 611 +/− 24 nanomol/mg tissue | 871 +/− 35 nanomol/mg tissue | Hydroxylysine Decr. (sclera [2]; [4]): 7%
